Reference: PubChem BioAssay (NCI)
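All cell lines were grown in 96-well plates and treated with compound for 48 hours. TGI denotes the concentration required for complete inhibition of growth.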

Key:
Assay in all cases: NCI tumour cell line growth inhibition, 48 h
A549 NSCLC = tested on: A549 NSCLC
OVCAR-8 ovarian = tested on: OVCAR-8 ovarian
MCF7 breast = tested on: MCF7 breast
NCI-H226 lung = tested on: NCI-H226 lung
SK-MEL-5 melanoma = tested on: SK-MEL-5 melanoma
SNB-19 CNS = tested on: SNB-19 CNS
MDA-MB-435 = tested on: MDA-MB-435
COLO 205 colon = tested on: COLO 205 colon
NCI/ADR-RES ovarian = tested on: NCI/ADR-RES ovarian
TK-10 renal = tested on: TK-10 renal
HOP-62 NSCLC = tested on: HOP-62 NSCLC
UACC-257 melanoma = tested on: UACC-257 melanoma
SK-OV-3 ovarian = tested on: SK-OV-3 ovarian
CCRF-CEM leukemia = tested on: CCRF-CEM leukemia
LOX IMVI melanoma = tested on: LOX IMVI melanoma
KM12 colon = tested on: KM12 colon
ACHN renal = tested on: ACHN renal
786-0 renal = tested on: 786-0 renal
U251 CNS = tested on: U251 CNS
NCI-H460 lung = tested on: NCI-H460 lung
A498 renal = tested on: A498 renal
MOLT-4 leukemia = tested on: MOLT-4 leukemia
DU-145 prostate = tested on: DU-145 prostate
K-562 leukemia = tested on: K-562 leukemia
SR leukemia = tested on: SR leukemia
HCT-116 colon = tested on: HCT-116 colon
SF-295 CNS = tested on: SF-295 CNS
SNB-75 CNS = tested on: SNB-75 CNS
HCC-2998 colon = tested on: HCC-2998 colon
SF-268 CNS = tested on: SF-268 CNS
MDA-N = tested on: MDA-N
OVCAR-5 ovarian = tested on: OVCAR-5 ovarian
IGROV1 ovarian = tested on: IGROV1 ovarian
HL-60(TB) leukemia = tested on: HL-60(TB) leukemia
NCI-H522 lung = tested on: NCI-H522 lung
SF-539 CNS = tested on: SF-539 CNS
EKVX NSCLC = tested on: EKVX NSCLC
SN12C renal = tested on: SN12C renal
HCT-15 colon = tested on: HCT-15 colon
HT29 colon = tested on: HT29 colon
PC-3 prostate = tested on: PC-3 prostate
MDA-MB-231 breast = tested on: MDA-MB-231 breast
T-47D breast = tested on: T-47D breast
NCI-H23 lung = tested on: NCI-H23 lung
SK-MEL-2 melanoma = tested on: SK-MEL-2 melanoma
HS 578T breast = tested on: HS 578T breast
SW-620 colon = tested on: SW-620 colon
SK-MEL-28 melanoma = tested on: SK-MEL-28 melanoma
RPMI-8226 leukemia = tested on: RPMI-8226 leukemia

COc1ccc(C2(O)C(S(=O)(=O)c3ccc(C)cc3)=Cc3ccc(OC)cc32)cc1 (centres undefined)
TGI (A549 NSCLC): > 100 µM
TGI (OVCAR-8 ovarian): > 100 µM
TGI (MCF7 breast): > 100 µM
TGI (NCI-H226 lung): > 100 µM
TGI (SK-MEL-5 melanoma): > 100 µM
TGI (SNB-19 CNS): > 100 µM
TGI (MDA-MB-435): > 100 µM
TGI (COLO 205 colon): > 100 µM
TGI (NCI/ADR-RES ovarian): > 100 µM
TGI (TK-10 renal): > 100 µM
TGI (HOP-62 NSCLC): 77.2 µM
TGI (UACC-257 melanoma): > 100 µM
TGI (SK-OV-3 ovarian): > 100 µM
TGI (CCRF-CEM leukemia): > 100 µM
TGI (LOX IMVI melanoma): > 100 µM
TGI (KM12 colon): > 100 µM
TGI (ACHN renal): > 100 µM
TGI (786-0 renal): > 100 µM
TGI (U251 CNS): > 100 µM
TGI (NCI-H460 lung): > 100 µM
TGI (A498 renal): > 100 µM
TGI (MOLT-4 leukemia): > 100 µM
TGI (DU-145 prostate): > 100 µM
TGI (K-562 leukemia): > 100 µM
TGI (SR leukemia): > 100 µM
TGI (HCT-116 colon): > 100 µM
TGI (SF-295 CNS): 97.4 µM
TGI (SNB-75 CNS): 60.1 µM
TGI (HCC-2998 colon): > 100 µM
TGI (SF-268 CNS): > 100 µM
TGI (MDA-N): > 100 µM
TGI (OVCAR-5 ovarian): > 100 µM
TGI (IGROV1 ovarian): > 100 µM
TGI (HL-60(TB) leukemia): > 100 µM
TGI (NCI-H522 lung): > 100 µM
TGI (SF-539 CNS): > 100 µM
TGI (EKVX NSCLC): > 100 µM
TGI (SN12C renal): > 100 µM
TGI (HCT-15 colon): > 100 µM
TGI (HT29 colon): > 100 µM
TGI (PC-3 prostate): > 100 µM
TGI (MDA-MB-231 breast): > 100 µM
TGI (T-47D breast): > 100 µM
TGI (NCI-H23 lung): > 100 µM
TGI (SK-MEL-2 melanoma): > 100 µM
TGI (HS 578T breast): > 100 µM
TGI (SW-620 colon): > 100 µM
TGI (SK-MEL-28 melanoma): > 100 µM
TGI (RPMI-8226 leukemia): > 100 µM
